Experimental data taken from PMC11283679 (Gastroenterology, 2023).
Ends that are not written are not given here. C(BODIPY) = not defined here

Tested on: NHE3
Type: cell-based, human
Settings: for activity: read-out: Stimulation of NHE3 activity (%)

Substance | EC50 [nM] | activity [%] | Stimulation of NHE3 activity (%)
N3SP-1Δ5: N3SP-1 with truncation of 5 N-terminal aa (TPRPSTVEASVSYLLRESASAVCLDMQSLEQRR-{C(BODIPY)}; reading uncertain; UniProt P26432 573-605, looked up, fragment) | 154 | 39 | –
N3SP-1Δ6: N3SP-1 with truncation of 6 N-terminal aa (PRPSTVEASVSYLLRESASAVCLDMQSLEQRR-{C(BODIPY)}; reading uncertain; UniProt P26432 574-605, looked up, fragment) | 151 | 40 | –
N3SP-1Δ8: N3SP-1 with truncation of 8 N-terminal aa (PSTVEASVSYLLRESASAVCLDMQSLEQRR-{C(BODIPY)}; reading uncertain; UniProt P26432 576-605, looked up, fragment) | – | 9 | –
N3SP-1Δ9: N3SP-1 with truncation of 9 N-terminal aa (STVEASVSYLLRESASAVCLDMQSLEQRR-{C(BODIPY)}; reading uncertain; UniProt P26432 577-605, looked up, fragment) | – | – | No
N3SP-1Δ18: N3SP-1 with truncation of 18 N-terminal aa (LLRESASAVCLDMQSLEQRR-{C(BODIPY)}; reading uncertain; UniProt P26432 586-605, looked up, fragment) | – | – | No
